Laboratory results published in PMC10938783, “A novel pan-PI3K inhibitor KTC1101 synergizes with anti-PD-1 therapy by targeting tumor suppression and immune activation” (Molecular Cancer, 2024).

What was measured:
[1] = test system: PC3, TMD8, HSC2, HSC4, CAL33 cells; assay: Cell proliferation MTT assay, five tumor cell lines; type: cell-based; conditions: Homo sapiens; cell viability assay; read-out: IC50 range over PC3, TMD8, HSC2, HSC4, CAL33 cells
Experimental: Cell proliferation was measured by MTT assay as previously described. The cells were seeded in a volume of 200 μL/well in 96-well plates. The next day, cells were treated with DMSO or a series of concentrations of KTC1101. After a 48-h incubation period, 20 μL of MTT (5 mg/mL) was added to each well. After further incubation for 4 h at 37 °C, the absorbance at 490 nm was measured using an iMark microplate reader (BIO-RAD, Hercules, CA, USA).

[2] = test system: phosphorylation of AKT and mTOR; assay: Western blot of PI3K pathway; type: cell-based, human; conditions: 48 h
Experimental: Western blots were performed as previously described. Cells were seeded into six-well plates and treated with DMSO or a series of concentrations of KTC1101. Cells were lysed, and total proteins were harvested. Equal amounts of protein (20–50 μg) were separated using 8% or 12% SDS-PAGE and transferred to polyvinylidene difluoride membranes (Bio-Rad). After blocking in 5% nonfat dry milk, the membranes were incubated with appropriate primary antibodies overnight at 4 °C, washed, and incubated with respective HRP-conjugated secondary antibodies for 1 h at room temperature. The signals were detected using a ChemiDoc XRS + System (Bio-Rad) after exposure to chemiluminescence reagents (Bio-Rad), and β-actin served as the loading control.

[3] = test system: tumor cell lines; assay: Apoptosis analysis; type: cell-based, human; conditions: tested cell lines, 48 h
[4] = test system: LOX-IMVI; assay: JFCR39 sulforhodamine B growth assay; type: cell-based; conditions: Homo sapiens, 48 h
Experimental: (§1) JFCR39 drug discovery system was used to measure the growth inhibitory activities and identify the target of KTC1101. The JFCR39 panel consists of 39 cell lines seeded in 96-well plates. After 48-h treatment with KTC1101, cell growth was measured using the sulforhodamine B assay. […] The deviation of log GI50 for each cell line from the average log GI50 across the JFCR39 panel was plotted as a fingerprint. MG-MID (mean of Log GI50 values) represents the average log GI50 for all 39 cell lines. The most sensitive and least sensitive cell lines were identified by calculating the difference in their log GI50 values (Range) and the difference between the most sensitive cell line and the average GI50 on the JFCR39 panel (Delta). The fingerprint of KTC1101 was compared with the fingerprints of reference compounds in the database. The Pearson correlation coefficient (r) was calculated (n = 39).

[5] = test system: NCI-H226; assay: JFCR39 sulforhodamine B growth assay; type: cell-based; conditions: Homo sapiens, NCI-H226, 48 h
Experimental: as §1

[6] = test system: NCI-H522; assay: JFCR39 sulforhodamine B growth assay; type: cell-based; conditions: Homo sapiens, NCI-H522, 48 h
Experimental: as §1

[7] = test system: SNB-75; assay: JFCR39 sulforhodamine B growth assay; type: cell-based; conditions: Homo sapiens, SNB-75, 48 h
Experimental: as §1

[8] = test system: HSC2 tumors; assay: HSC2 xenograft in BALB/c nude mice; type: in vivo, mouse; conditions: 100 mg/kg PO
Experimental: (§2) BALB/c nude, NSG, and C57BL/6J mice were obtained from Tianjin Medical University. The housing temperature was controlled, ranging from 20.5–24 °C, and humidity was monitored but not controlled ranging from 30–70%. The 12-h daily light cycle was from 06:00 to 18:00. To generate a murine subcutaneous tumor model, PC3 and HSC2 cells were subcutaneously injected into the right lateral flank of 4- to 5-week-old male BALB/c nude mice. TMD8, CAL33, and S24 cells were subcutaneously injected into the right lateral flank of 4- to 5-week-old male NSG mice. When tumors reached a volume of 300–500 mm^3, they were excised, diced into 2 mm × 2 mm × 2 mm pieces, and implanted into the right flanks of BALB/c nude or NSG mice. Tumors were allowed to grow to a volume of 100 mm^3, and then the animals were randomly divided into several groups. Each group of five mice was treated with either vehicle or KTC1101 (25, 50, or 100 mg/kg, PO). Tumor size was measured every 3 d or 4 d until the endpoint. The tumor volume was calculated using the following formula: length × width × height/2. At the end of the experimental period, mice were euthanized by overdosing on pentobarbital sodium, and the tumors were removed. Tumor tissue was formalin-fixed and paraffin-embedded for histological analysis.

[9] = test system: CAL33 tumors; assay: CAL33 xenograft in NSG mice; type: in vivo, mouse; conditions: 100 mg/kg PO
Experimental: as §2

[10] = test system: S24 tumors; assay: S24 syngeneic model in C57BL/6 mice; type: in vivo, mouse; conditions: S24 in WT C57BL/6 mice, 100 mg/kg daily oral gavage
Experimental: To generate syngeneic mouse models, S24 and B16 cells were subcutaneously injected into the right lateral flank of 4- to 5-week-old male C57BL/6 mice. Tumors were allowed to grow to a volume of 100 mm^3, and then the animals were randomly divided into several groups. For S24 tumor-bearing mice, each group of five mice was treated with either vehicle or KTC1101 (100 mg/kg, PO). Tumor size was measured every 3 d or 4 d until the endpoint. For B16 tumor-bearing mice, each group of five mice was treated with either vehicle, KTC1101 (50 or 100 mg/kg, PO), anti-PD-1 antibody (250 μg per mouse, clone RPM1-14, Bio X cell, IP), or KTC1101 and anti-PD-1 antibody. Tumor size was monitored every other day, and the tumor was harvested at indicated time points for analysis of tumor-infiltrating lymphocytes. The tumor volume was calculated using the following formula: length × width × height/2.

[11] = test system: B16 tumors; assay: B16 syngeneic model in C57BL/6 mice; type: in vivo, mouse
[12] = Drug concentration measurement in tumors; type: in vivo, mouse; conditions: B16 tumors, continuous dosing
Experimental: To evaluate the intratumoral concentration of KTC1101, the B16 murine cancer model was established by subcutaneously implanting 2.5 × 10^5 B16 cells into the right lateral flank of C57BL/6 mice. The mouse model was utilized for experiments when tumor volumes reached approximately 100 mm^3. The B16 tumor-bearing C57BL/6 mice were divided into groups, with each group comprising three mice. They were treated with KTC1101 at doses of either 50 or 100 mg/kg (PO). The mice were sacrificed, and tumors were collected on days 1, 5, and 7 post-treatment. Approximately 50 mg of each tumor was homogenized in 1 mL of methanol, followed by centrifugation at 12,000 rpm at 4 °C for 10 min. The concentration of KTC1101 in the supernatant was quantified using LC–MS.

[13] = test system: PC3 cells gene expression; assay: RNA-Seq (DEGs, GSEA) of PC3 cells; conditions: 25 nM, 48 h

## COc1cc(N)cc2c1nc(C(F)F)n2-c1nc(N2CCCOCC2)nc(N2CCOCC2)n1 [KTC1101, 2-(difluoromethyl)-4-methoxy-1-(4-morpholino-6-(1,4-oxazepan-4-yl)-1,3,5-triazin-2-yl)-1H-benzo[d]imidazol-6-amine]
[1]
  IC50: 20 to 130 nM
[2]
  phosphorylation of AKT and mTOR: reduced phosphorylation
[3]
  induction of apoptosis: did not observe a potent induction of apoptosis except HSC2 cell line
[4]
  GI50: 17.4 nM
[5]
  GI50: 16.6 nM
[6]
  GI50: 10 nM
[7]
  GI50: 10 nM
[8]
  tumor growth: Tumor growth arrest
[9]
  tumor growth: Tumor growth arrest
[10]
  time until relapse was detected: 18 days
[11]; B16, 50 mg/kg, daily
  tumor growth over 14 days: comparably suppressed tumor growth
[11]; B16, 100 mg/kg 3 days on/4 days off and 50 mg/kg daily, 14 days
  mouse body weight: without significant changes in mouse body weight
[11]; B16, 100 mg/kg, 3 days on/4 days off
  tumor growth over 14 days: comparably suppressed tumor growth
[11]; B16, intermittent regimen 100 mg/kg 3 days on/4 days off vs continuous
  mouse survival: notably prolonged mouse survival
[12]
  intratumoral drug concentration: accumulation of the drug in continuous dosing
[13]
  expression of genes associated with the PI3K/AKT/mTOR pathway (GSEA): reduction in the expression of genes
